According to ChEMBL document CHEMBL3039007, “Structure-based identification of OATP1B1/3 inhibitors” (Mol Pharmacol, 2013):

Experiments:
[1] = target: T1, Solute carrier organic anion transporter family member 1B1 (Homo sapiens, UniProt Q9Y6L6); settings: chinese hamster, cho, 10 µM
T1 sequence (Q9Y6L6 whole entry): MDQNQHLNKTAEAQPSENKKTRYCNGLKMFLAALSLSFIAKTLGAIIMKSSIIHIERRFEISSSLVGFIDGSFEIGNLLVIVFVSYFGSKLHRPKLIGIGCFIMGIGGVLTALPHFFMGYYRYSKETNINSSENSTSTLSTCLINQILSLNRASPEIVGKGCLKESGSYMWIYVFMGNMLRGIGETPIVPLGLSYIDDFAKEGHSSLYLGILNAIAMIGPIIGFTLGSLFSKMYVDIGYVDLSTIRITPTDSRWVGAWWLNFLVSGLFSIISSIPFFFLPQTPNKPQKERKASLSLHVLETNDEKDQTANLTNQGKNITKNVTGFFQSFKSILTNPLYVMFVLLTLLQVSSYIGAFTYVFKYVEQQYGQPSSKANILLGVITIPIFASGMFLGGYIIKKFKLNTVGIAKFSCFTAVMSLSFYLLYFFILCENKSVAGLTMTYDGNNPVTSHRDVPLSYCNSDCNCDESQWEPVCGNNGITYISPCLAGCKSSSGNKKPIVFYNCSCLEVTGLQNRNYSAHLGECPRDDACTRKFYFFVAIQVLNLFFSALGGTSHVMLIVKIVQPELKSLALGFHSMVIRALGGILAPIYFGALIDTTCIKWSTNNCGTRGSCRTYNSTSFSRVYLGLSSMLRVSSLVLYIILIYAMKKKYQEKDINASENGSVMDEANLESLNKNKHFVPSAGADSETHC

[2] = target: T2, Solute carrier organic anion transporter family member 1B3 (Homo sapiens, UniProt Q9NPD5); settings: chinese hamster, cho, 10 µM
T2 sequence (Q9NPD5 whole entry): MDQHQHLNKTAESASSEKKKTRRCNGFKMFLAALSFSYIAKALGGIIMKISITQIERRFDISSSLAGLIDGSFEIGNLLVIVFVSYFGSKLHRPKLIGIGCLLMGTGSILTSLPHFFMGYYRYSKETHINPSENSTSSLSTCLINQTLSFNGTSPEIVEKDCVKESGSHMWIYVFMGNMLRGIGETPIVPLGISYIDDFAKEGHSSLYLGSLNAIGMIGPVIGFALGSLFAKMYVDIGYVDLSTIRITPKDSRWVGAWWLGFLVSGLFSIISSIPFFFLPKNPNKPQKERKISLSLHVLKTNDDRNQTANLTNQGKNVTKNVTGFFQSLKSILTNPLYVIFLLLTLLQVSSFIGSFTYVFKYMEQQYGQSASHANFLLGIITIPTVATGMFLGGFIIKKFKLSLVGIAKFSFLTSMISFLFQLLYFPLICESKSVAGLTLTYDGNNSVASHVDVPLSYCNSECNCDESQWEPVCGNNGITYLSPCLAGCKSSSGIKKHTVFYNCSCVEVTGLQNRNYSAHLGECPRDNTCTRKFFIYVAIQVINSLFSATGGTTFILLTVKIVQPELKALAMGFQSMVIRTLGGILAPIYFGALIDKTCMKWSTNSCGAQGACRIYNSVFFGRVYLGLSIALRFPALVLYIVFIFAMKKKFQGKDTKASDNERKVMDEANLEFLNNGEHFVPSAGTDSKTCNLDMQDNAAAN

residual activity [1] [%]	residual activity [2] [%]	Compound
67.47	56.31	CCCCC(=O)N(Cc1ccc(-c2ccccc2-c2nnn[nH]2)cc1)[C@H](C(=O)O)C(C)C
127.8163	103.6	CC(=O)N[C@@H](CC(=O)O)C(=O)O
68.38	108.8	COc1cccc(OC)c1C(=O)N[C@@H]1C(=O)N2[C@@H]1SC(C)(C)[C@@H]2C(=O)[O-].[Na+]
233.5	112.9	COc1cnc(NS(=O)(=O)c2ccc(N)cc2)nc1
89.17	96.23	CN[C@@H]1[C@H](O)[C@H](NC)[C@H]2O[C@@]3(O)C(=O)C[C@@H](C)O[C@H]3O[C@@H]2[C@H]1O.Cl
59.95	77.8	CC(=O)N[C@@H](CCC(=O)O)C(=O)O
118.1	115.5	COC(=O)CCCOc1ccc(Cl)cc1Cl
240.6	88.55	CC1=C(CC(=O)O)c2cc(F)ccc2/C1=C\c1ccc([S+](C)[O-])cc1 (stereo unspecified)
71.57	86.34	CC[C@@H](CO)NCCN[C@@H](CC)CO.Cl
83.88	87.91	CC(C)NCC(O)c1ccc2ccccc2c1.Cl (stereo unspecified)
105.5	93.76	CC(C)CCCCCOC(=O)COc1cc(Cl)c(Cl)cc1Cl
76.42	77.45	CCC(=O)OCC(=O)[C@]1(OC(=O)CC)[C@H](C)C[C@H]2[C@@H]3CCC4=CC(=O)C=C[C@]4(C)[C@@]3(F)[C@@H](O)C[C@]21C
68.02	74.75	CC1(C)C(=O)[C@@H]2O[C@@H]2[C@]2(C)[C@H]3CC[C@@]4(C)[C@H](c5ccoc5)OC(=O)[C@H]5O[C@]54[C@]3(C)C(=O)C[C@@H]12
49.67	99.12	COC(=O)[C@@H]1OC(=O)[C@H]2O[C@]23[C@@]2(C)[C@H](CC[C@@]13C)[C@@]1(C)CCC(=O)C(C)(C)[C@@H]1C[C@H]2OC(C)=O
104.4	112.9	C=C(C)CCC[C@@H](C)CCOC(C)=O
56.15	89.62	CC1(C)C=CC(=O)[C@]2(C)[C@H]3CC[C@@]4(C)[C@H](c5ccoc5)OC(=O)[C@H]5O[C@]54[C@]3(C)C(=O)C[C@@H]12
71.83	72.95	CC=CC(=O)N(CC)c1ccccc1C
121	108.4	O=C([O-])c1cc2cc(Cc3cccnc3)ccc2o1.[Na+]
113.1	112.7	O=C(O)CCCN1C(=O)c2cccc3cccc(c23)C1=O
140.7	114.2	C=C1C(=O)O[C@@H]2C3O[C@]3(C)CC/C=C(\C)CC[C@@H]12 (stereo partly specified)
109.1	101.6	CCOC(N)=O
73.96	96.66	Cc1cc(-c2ccccc2)nnc1NCCN1CCOCC1.Cl
92.13	78.64	C=CC1=C(C(=O)O)N2C(=O)[C@@H](NC(=O)/C(=N\O)c3csc(N)n3)[C@H]2SC1
71.59	64.06	CCN(CC)C(=S)SSC(=S)N(CC)CC

Compound	residual activity [1] [%]	residual activity [2] [%]
CC(C)(C)NCC(O)c1cc(O)cc(O)c1.O=S(=O)(O)O (stereo unspecified)	89.3	94.09
NCC[C@H](O)C(=O)N[C@@H]1C[C@H](N)[C@@H](O[C@H]2O[C@H](CN)[C@@H](O)[C@H](O)[C@H]2O)[C@H](O)[C@H]1O[C@H]1O[C@H](CO)[C@@H](O)[C@H](N)[C@H]1O.O=S(=O)(O)O	72.99	92.21
CCCCCC(C)N.O=S(=O)(O)O (stereo unspecified)	70.88	90.66
O=C(O)CCCOc1ccc(Cl)cc1Cl	123.3	112
CCCCCCCCCCCCCCCC[n+]1ccccc1.O.[Cl-]	77.95	166.6
C[C@]12CC[C@@H]3c4ccc(OCc5ccccc5)cc4CC[C@H]3[C@@H]1C[C@@H](O)[C@@H]2O	100	102.7
C[C@]12CC[C@@H]3c4ccc(OS(=O)(=O)[O-])cc4CC[C@H]3[C@@H]1CC[C@@H]2O.[Na+]	53.18	95.65
COc1ccc2c(c1)CC[C@@H]1[C@@H]2CC[C@]2(C)[C@@H](O)[C@H](O)C[C@@H]12	76.58	103.4
C[C@@H]1CC(Cl)CC[C@H]1C(=O)OC(C)(C)C.C[C@@H]1CCC(Cl)C[C@H]1C(=O)OC(C)(C)C (stereo partly specified)	121	115.1
CC1(C)[C@H](O)CC(=O)[C@]2(C)[C@H]3CC[C@@]4(C)[C@H](c5ccoc5)OC(=O)[C@H]5O[C@]54[C@]3(C)C(=O)C[C@@H]12	33.49	61.45
C[C@H](CCC(=O)O)[C@H]1CC[C@H]2[C@@H]3CC[C@@H]4CC(=O)CC[C@]4(C)[C@H]3C=C[C@]12C	40.37	203.2
CC1(C)[C@H](O)C[C@H](O)[C@@]2(C)[C@H]3CC[C@]4(C)[C@@H](c5ccoc5)OC(=O)[C@H]5O[C@]54[C@]3(C)[C@H](O)C[C@@H]12	48	84.19
C=C1C2CC[C@H]3[C@]4(C)C[C@H](O[C@H]5O[C@H](CO)[C@@H](OS(=O)(=O)[O-])[C@H](OS(=O)(=O)[O-])[C@H]5OC(=O)CC(C)C)C[C@@H](C(=O)O)[C@H]4CC[C@]3(C2)[C@H]1O.[K+].[K+]	100	92.24
C[C@H](CCC(=O)O)[C@H]1CC[C@H]2[C@@H]3CC[C@@H]4C[C@H](O)CC[C@]4(C)[C@H]3C=C[C@]12C	23.69	112
CC(=O)OCC(=O)[C@@]1(O)CC[C@H]2[C@@H]3CC[C@@H]4C[C@H](O)CC[C@]4(C)[C@H]3C(=O)C[C@@]21C	81.64	80
COC[C@]12CN(C=O)C3[C@@H]4[C@H](OC)[C@H]1[C@@]3([C@@H](OC)C[C@H]2O)[C@@H]1C[C@@]2(O)[C@H](OC(=O)c3ccccc3)[C@@H]1[C@]4(OC(C)=O)[C@@H](O)[C@@H]2OC	90.86	73.94
CC(=O)O[C@H]1CC[C@@]23C(=O)O[C@]45CC[C@H](C6=CC(=O)OC6)[C@@]4(C)CC[C@H]2[C@H]5CC[C@]3(O)C1	59.99	85.76
Cc1onc(-c2ccccc2)c1C(=O)N[C@@H]1C(=O)N2[C@@H]1SC(C)(C)[C@@H]2C(=O)[O-].[Na+]	76.67	90.07
O=C1OC(=O)C2C3CCC(O3)C12 (stereo unspecified)	106.4	93.17
